Measured values from patent US9763445B2, “Safened herbicidal compositions comprising a pyridine carboxylic acid herbicide” (Dow AgroSciences, LLC, priority 2014, dated 2017).

Experiments:
[1] = test system: bird's-eye speedwell (VERPE); assay: Postemergence greenhouse trial, % visual injury on bird's-eye speedwell; type: in vivo, Veronica persica; details: alone
Summary of the method: (§1)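 Herbicide rates g ae/ha, safener (cloquintocet-mexyl) rates g ai/ha; spray carrier 1.5% v/v crop oil concentrate, 187 L/ha, 2nd–3rd leaf stage. Rating: visual % injury at 20-22 d.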

wild mustard (SINAR) = assay: Postemergence greenhouse trial, % visual injury on wild mustard; type: in vivo, Sinapis arvensis; details: for % visual injury, Ob / % visual injury, observed (Ob): SINAR
Summary of the method: as §1

common poppy (PAPRH) = assay: Postemergence greenhouse trial, % visual injury on common poppy; type: in vivo, Papaver rhoeas; details: for % visual injury, Ob / % visual injury, observed (Ob): PAPRH
Summary of the method: as §1

spring barley (HORVS) = assay: Postemergence greenhouse trial, % visual injury on spring barley; type: in vivo, Hordeum vulgare
Summary of the method: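 Greenhouse crops at second to third true leaf stage sprayed postemergence at 187 L/ha with herbicide (g ae/ha) plus safener (g ai/ha) in acetone/DMSO diluted into 1.5% v/v Agri-dex. Injury scored visually versus solvent-blank controls after 20-22 d, 0 (none) to 100% (complete kill); expected mixture effects by Colby's equation.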

[2] = compound 0 g/ha, CQC-m 4.375 g/ha
[3] = compound 0 g/ha, CQC-m 8.75 g/ha
[4] = compound 0 g/ha, CQC-m 17.5 g/ha
[5] = compound 8 0 + CQC-m 4.375 g/ha

CCCCCC(C)OC(=O)COc1ccc(Cl)c2cccnc12 (stereo not shown) [CQC-m, cloquintocet-mexyl, reference compound]
0%: % visual injury, Ob ([1]; 8.75 g/ha) | % visual injury, Ob ([1]; 17.5 g/ha) | % visual injury, Ob ([1]; 35 g/ha) | % visual injury, Ob ([1]; 70 g/ha) | pest or weed control at 4.375 g/ha (wild mustard (SINAR); Brassica, post-emergence, alone, 4.375 g/ha, read-out: % visual injury, Ob) | pest or weed control at 8.75 g/ha (wild mustard (SINAR); Brassica, post-emergence, alone, 8.75 g/ha, read-out: % visual injury, Ob) | pest or weed control at 17.5 g/ha (wild mustard (SINAR); Brassica, post-emergence, alone, 17.5 g/ha, read-out: % visual injury, Ob) | pest or weed control at 35 g/ha (wild mustard (SINAR); Brassica, post-emergence, alone, 35 g/ha, read-out: % visual injury, Ob) | pest or weed control at 70 g/ha (wild mustard (SINAR); Brassica, post-emergence, alone, 70 g/ha, read-out: % visual injury, Ob) | % visual injury, Ob (wild mustard (SINAR); 4.375 g/ha, applied alone) | % visual injury, Ob (wild mustard (SINAR); 8.75 g/ha, applied alone) | % visual injury, Ob (wild mustard (SINAR); 17.5 g/ha, applied alone) | % visual injury, Ob (wild mustard (SINAR); 35 g/ha, applied alone) | % visual injury, Ob (wild mustard (SINAR); 70 g/ha, applied alone) | % visual injury, Ob (wild mustard (SINAR); compound 0, CQC-m 4.375 g/ha) | % visual injury, Ob (wild mustard (SINAR); compound 0, CQC-m 8.75 g/ha) | % visual injury, Ob (wild mustard (SINAR); compound 0, CQC-m 17.5 g/ha) | % visual injury, Ob (wild mustard (SINAR); compound 0, CQC-m 35 g/ha) | % visual injury, Ob (wild mustard (SINAR); compound 0, CQC-m 70 g/ha) | % visual injury, Ob (wild mustard (SINAR); [2]) | % visual injury, Ob (wild mustard (SINAR); [3]) | % visual injury, Ob (wild mustard (SINAR); [4]) | % visual injury, Ob (wild mustard (SINAR); compound 0 g/ha, CQC-m 35 g/ha) | % visual injury, Ob (wild mustard (SINAR); compound 0 g/ha, CQC-m 70 g/ha) | % visual injury, observed (Ob) (wild mustard (SINAR); [5]) | % visual injury, observed (Ob) (wild mustard (SINAR); compound 8 0 + CQC-m 8.75 g/ha) | % visual injury, observed (Ob) (wild mustard (SINAR); compound 8 0 + CQC-m 17.5 g/ha) | % visual injury, observed (Ob) (wild mustard (SINAR); compound 8 0 + CQC-m 35 g/ha) | % visual injury, observed (Ob) (wild mustard (SINAR); compound 8 0 + CQC-m 70 g/ha) | % visual injury, Ob (common poppy (PAPRH); 4.375 g/ha, applied alone) | % visual injury, Ob (common poppy (PAPRH); 8.75 g/ha, applied alone) | % visual injury, Ob (common poppy (PAPRH); 17.5 g/ha, applied alone) | % visual injury, Ob (common poppy (PAPRH); 35 g/ha, applied alone) | % visual injury, Ob (common poppy (PAPRH); 70 g/ha, applied alone) | % visual injury, Ob (common poppy (PAPRH); compound 0, CQC-m 4.375 g/ha) | % visual injury, Ob (common poppy (PAPRH); compound 0, CQC-m 8.75 g/ha) | % visual injury, Ob (common poppy (PAPRH); compound 0, CQC-m 17.5 g/ha) | % visual injury, Ob (common poppy (PAPRH); compound 0, CQC-m 35 g/ha) | % visual injury, Ob (common poppy (PAPRH); compound 0, CQC-m 70 g/ha) | % visual injury, Ob (common poppy (PAPRH); [2]) | % visual injury, Ob (common poppy (PAPRH); [3]) | % visual injury, Ob (common poppy (PAPRH); [4]) | % visual injury, Ob (common poppy (PAPRH); compound 0 g/ha, CQC-m 35 g/ha) | % visual injury, Ob (common poppy (PAPRH); compound 0 g/ha, CQC-m 70 g/ha) | % visual injury, observed (Ob) (common poppy (PAPRH); [5]) | % visual injury, observed (Ob) (common poppy (PAPRH); compound 8 0 + CQC-m 8.75 g/ha) | % visual injury, observed (Ob) (common poppy (PAPRH); compound 8 0 + CQC-m 17.5 g/ha) | % visual injury, observed (Ob) (common poppy (PAPRH); compound 8 0 + CQC-m 35 g/ha) | % visual injury, observed (Ob) (common poppy (PAPRH); compound 8 0 + CQC-m 70 g/ha) | pest or weed control at 4.375 g/ha (common poppy (PAPRH); Papaver rhoeas, post-emergence, alone, 4.375 g/ha, read-out: % visual injury, Ob) | pest or weed control at 8.75 g/ha (common poppy (PAPRH); Papaver rhoeas, post-emergence, alone, 8.75 g/ha, read-out: % visual injury, Ob) | pest or weed control at 17.5 g/ha (common poppy (PAPRH); Papaver rhoeas, post-emergence, alone, 17.5 g/ha, read-out: % visual injury, Ob) | pest or weed control at 35 g/ha (common poppy (PAPRH); Papaver rhoeas, post-emergence, alone, 35 g/ha, read-out: % visual injury, Ob) | pest or weed control at 70 g/ha (common poppy (PAPRH); Papaver rhoeas, post-emergence, alone, 70 g/ha, read-out: % visual injury, Ob) | % visual injury, Ob (spring barley (HORVS); HORVS, 4.375 g/ha, applied alone) | % visual injury, Ob (spring barley (HORVS); HORVS, 8.75 g/ha, applied alone) | % visual injury, Ob (spring barley (HORVS); HORVS, 17.5 g/ha, applied alone) | % visual injury, Ob (spring barley (HORVS); HORVS, 35 g/ha, applied alone) | % visual injury, Ob (spring barley (HORVS); HORVS, 70 g/ha, applied alone) | % visual injury, Ob (spring barley (HORVS); HORVS, compound 0, CQC-m 4.375 g/ha) | % visual injury, Ob (spring barley (HORVS); HORVS, compound 0, CQC-m 8.75 g/ha) | % visual injury, Ob (spring barley (HORVS); HORVS, compound 0, CQC-m 17.5 g/ha) | % visual injury, Ob (spring barley (HORVS); HORVS, compound 0, CQC-m 35 g/ha) | % visual injury, Ob (spring barley (HORVS); HORVS, compound 0, CQC-m 70 g/ha) | % visual injury, Ob (spring barley (HORVS); HORVS, compound 0 g/ha, CQC-m 4.375 g/ha) | % visual injury, Ob (spring barley (HORVS); HORVS, compound 0 g/ha, CQC-m 8.75 g/ha) | % visual injury, Ob (spring barley (HORVS); HORVS, compound 0 g/ha, CQC-m 17.5 g/ha) | % visual injury, Ob (spring barley (HORVS); HORVS, compound 0 g/ha, CQC-m 35 g/ha) | % visual injury, Ob (spring barley (HORVS); HORVS, compound 0 g/ha, CQC-m 70 g/ha) | % visual injury, observed (Ob) (spring barley (HORVS); HORVS, compound 8 0 + CQC-m 4.375 g/ha) | % visual injury, observed (Ob) (spring barley (HORVS); HORVS, compound 8 0 + CQC-m 8.75 g/ha) | % visual injury, observed (Ob) (spring barley (HORVS); HORVS, compound 8 0 + CQC-m 17.5 g/ha) | % visual injury, observed (Ob) (spring barley (HORVS); HORVS, compound 8 0 + CQC-m 35 g/ha) | % visual injury, observed (Ob) (spring barley (HORVS); HORVS, compound 8 0 + CQC-m 70 g/ha) | % visual injury, Ob (spring barley (HORVS); alone, 4.375 g/ha) | % visual injury, Ob (spring barley (HORVS); alone, 8.75 g/ha) | % visual injury, Ob (spring barley (HORVS); alone, 17.5 g/ha) | % visual injury, Ob (spring barley (HORVS); alone, 20 g/ha) | % visual injury, Ob (spring barley (HORVS); alone, 35 g/ha) | % visual injury, Ob (spring barley (HORVS); alone, 40 g/ha) | % visual injury, Ob (spring barley (HORVS); alone, 70 g/ha) | % visual injury, Ob (spring barley (HORVS); alone, 80 g/ha)
